Measurements reported in ChEMBL document CHEMBL3045483, “Chalcones as promising pesticidal agents against diamondback moth (Plutella xylostella): microwave-assisted synthesis and structureactivity relationship” (Med Chem Res, 2012).
In brackets after ≈: the same amount, converted by molar mass. Each block holds one compound with its values, some of them ahead of it.

Columns and labels:
[1] = Aqueous solubility of the compound; type: physicochemical; conditions: buffer
Plutella xylostella [2] = assay: Insecticidal activity against second-instar larvae Plutella xylostella (diamondback moth) in compound treated cabbage leaves assessed as mortality at 10000 ug/mL after 48 hr by leaf dip method; type: functional; conditions: foliar
Plutella xylostella [3] = assay: Insecticidal activity against second-instar larvae Plutella xylostella (diamondback moth) in compound treated cabbage leaves assessed as mortality at 5000 ug/mL after 48 hr by leaf dip method; type: functional; conditions: foliar
Plutella xylostella [4] = assay: Insecticidal activity against second-instar larvae Plutella xylostella (diamondback moth) in compound treated cabbage leaves assessed as mortality after 48 hr by leaf dip method; type: functional; conditions: foliar

solubility [1]: Insoluble
Structure (SMILES): COc1cccc(C(=O)/C=C/c2ccc(Cl)c(Cl)c2)c1

Structure (SMILES): COc1ccc(C(=O)/C=C/c2ccc(Cl)cc2Cl)cc1
mortality at 10000 µg/mL (Plutella xylostella [2]): 100%
mortality at 5000 µg/mL (Plutella xylostella [3]): 100%
LC50 (Plutella xylostella [4]): 278 µg/mL (≈ 907 µM)

Structure (SMILES): O=C(/C=C/c1ccc(Cl)cc1)c1ccc2c(c1)OCO2
mortality at 10000 µg/mL (Plutella xylostella [2]): 23%
mortality at 5000 µg/mL (Plutella xylostella [3]): 13.3%

solubility [1]: Insoluble
Structure (SMILES): COc1cc(/C=C/C(C)=O)ccc1O [DEHYDROZINGERONE]

Structure (SMILES): O=C(/C=C/c1ccc(Cl)c(Cl)c1)c1ccc(Cl)cc1
mortality at 10000 µg/mL (Plutella xylostella [2]): 97.7%
mortality at 5000 µg/mL (Plutella xylostella [3]): 60%

Structure (SMILES): COc1ccc(C(=O)/C=C/c2ccc(Cl)c(Cl)c2)cc1OC
mortality at 10000 µg/mL (Plutella xylostella [2]): 68%
mortality at 5000 µg/mL (Plutella xylostella [3]): 46.6%

Structure (SMILES): COc1ccc(/C=C/C(=O)c2ccc(Cl)cc2)cc1
mortality at 10000 µg/mL (Plutella xylostella [2]): 50%
mortality at 5000 µg/mL (Plutella xylostella [3]): 26.6%

Structure (SMILES): COc1ccc(/C=C/C(=O)c2ccc(OC)cc2)cc1 [4,4'-DIMETHOXYCHALCONE]
mortality at 10000 µg/mL (Plutella xylostella [2]): 26.6%
mortality at 5000 µg/mL (Plutella xylostella [3]): 16.6%

Structure (SMILES): O=C(/C=C/c1ccc(Cl)cc1)c1ccc(Cl)cc1 [4',4-DICHLOROCHALCONE]
mortality at 10000 µg/mL (Plutella xylostella [2]): 100%
mortality at 5000 µg/mL (Plutella xylostella [3]): 100%
LC50 (Plutella xylostella [4]): 170 µg/mL (≈ 614 µM)

solubility [1]: Insoluble
Structure (SMILES): COc1ccc(C(=O)/C=C/c2cccc3ccccc23)cc1

Structure (SMILES): O=C(/C=C/c1ccc(Cl)cc1)c1ccc([N+](=O)[O-])cc1
mortality at 10000 µg/mL (Plutella xylostella [2]): 26.6%
mortality at 5000 µg/mL (Plutella xylostella [3]): 20%

Structure (SMILES): COc1ccccc1C(=O)/C=C/c1ccc(Cl)c(Cl)c1
mortality at 10000 µg/mL (Plutella xylostella [2]): 63.3%
mortality at 5000 µg/mL (Plutella xylostella [3]): 50%

solubility [1]: Insoluble
Structure (SMILES): COc1cc(C(=O)/C=C/c2ccc(Cl)c(Cl)c2)cc(OC)c1OC

Structure (SMILES): Cc1ccc(C(=O)/C=C/c2ccc(Cl)c(Cl)c2)cc1
mortality at 10000 µg/mL (Plutella xylostella [2]): 83.3%
mortality at 5000 µg/mL (Plutella xylostella [3]): 60%

Structure (SMILES): O=C(/C=C/c1ccco1)c1ccc([N+](=O)[O-])cc1
mortality at 10000 µg/mL (Plutella xylostella [2]): 23%
mortality at 5000 µg/mL (Plutella xylostella [3]): 16.6%

Structure (SMILES): O=C(/C=C/c1ccc(Cl)cc1)c1ccc(O)cc1
mortality at 10000 µg/mL (Plutella xylostella [2]): 100%
mortality at 5000 µg/mL (Plutella xylostella [3]): 100%
LC50 (Plutella xylostella [4]): 871 µg/mL (≈ 3370 µM)

Structure (SMILES): COc1ccc(C(=O)/C=C/c2ccc(Cl)c(Cl)c2)cc1
mortality at 10000 µg/mL (Plutella xylostella [2]): 100%
mortality at 5000 µg/mL (Plutella xylostella [3]): 100%
LC50 (Plutella xylostella [4]): 288 µg/mL (≈ 936 µM)

Structure (SMILES): COc1ccc(/C=C/C(C)=O)cc1
mortality at 10000 µg/mL (Plutella xylostella [2]): 30%
mortality at 5000 µg/mL (Plutella xylostella [3]): 26.6%

Structure (SMILES): O=C(/C=C/c1ccc(Cl)c(Cl)c1)c1ccc(Cl)c(Cl)c1
mortality at 10000 µg/mL (Plutella xylostella [2]): 73.3%
mortality at 5000 µg/mL (Plutella xylostella [3]): 46.6%

Structure (SMILES): CC1(C)[C@H](C(=O)O[C@H](C#N)c2cccc(Oc3ccccc3)c2)[C@@H]1C=C(Br)Br [DELTAMETHRIN]
LC50 (Plutella xylostella [4]): 6.25 µg/mL (≈ 12.4 µM)

Structure (SMILES): O=C(/C=C/c1cccs1)c1ccc([N+](=O)[O-])cc1
mortality at 10000 µg/mL (Plutella xylostella [2]): 30%
mortality at 5000 µg/mL (Plutella xylostella [3]): 23.3%

Structure (SMILES): COc1ccc(C(=O)/C=C/c2ccc(Cl)cc2)cc1
mortality at 10000 µg/mL (Plutella xylostella [2]): 100%
mortality at 5000 µg/mL (Plutella xylostella [3]): 100%
LC50 (Plutella xylostella [4]): 356 µg/mL (≈ 1310 µM)

Structure (SMILES): C=CCOc1ccc(C(=O)/C=C/c2ccc(Cl)cc2)cc1
mortality at 10000 µg/mL (Plutella xylostella [2]): 100%
mortality at 5000 µg/mL (Plutella xylostella [3]): 100%
LC50 (Plutella xylostella [4]): 268 µg/mL (≈ 898 µM)

Structure (SMILES): COc1ccc(C(=O)/C=C/c2ccc(Br)cc2)cc1
mortality at 10000 µg/mL (Plutella xylostella [2]): 10%
mortality at 5000 µg/mL (Plutella xylostella [3]): 3.3%

Structure (SMILES): COc1ccc(C(=O)/C=C/c2ccc(F)cc2)cc1
mortality at 10000 µg/mL (Plutella xylostella [2]): 33.3%
mortality at 5000 µg/mL (Plutella xylostella [3]): 26.6%

Structure (SMILES): COc1cc(OC)c(OC)cc1/C=C/C(C)=O
mortality at 10000 µg/mL (Plutella xylostella [2]): 26.6%
mortality at 5000 µg/mL (Plutella xylostella [3]): 0%
